Measured values: the NIST ThermoML archive (doi:10.1016/j.fluid.2009.04.006)
Where “and” joins values, the source holds several entries; their conditions need not be identical. Equal entries are not always repeated. ± gives the expanded uncertainty stated by the source.

Details: Liquid, Closed cell (Static) method

What does the source list for NCCOCCOCCN [1,2-bis(2-aminoethoxy)ethane]?
vapor or sublimation pressure (292.92 K): 0.00358 ± 0.00027 kPa; vapor or sublimation pressure (302.88 K): 0.00757 ± 0.00054 kPa; vapor or sublimation pressure (312.87 K): 0.0156 ± 0.0011 kPa; vapor or sublimation pressure (322.91 K): 0.0297 ± 0.0019 kPa; vapor or sublimation pressure (332.89 K): 0.0545 ± 0.0034 kPa; vapor or sublimation pressure (342.89 K): 0.104 ± 0.007 kPa; vapor or sublimation pressure (353.02 K): 0.184 ± 0.011 kPa

Which “vapor or sublimation pressure” value (292.82 K) does the source give for OCCNCc1ccccc1 [2-benzylaminoethanol] here?
Its value is 0.000782 ± 0.00011 kPa.

And the “vapor or sublimation pressure” value (312.85 K)?
Its value is 0.0052 ± 0.00038 kPa.

What about the “vapor or sublimation pressure” value (332.88 K) of the same molecule?
Its value is 0.0271 ± 0.0018 kPa.

And the “vapor or sublimation pressure” value (332.89 K)?
Its value is 0.027 ± 0.0018 kPa.

What about the “vapor or sublimation pressure” value (352.92 K) of the same molecule?
The value was 0.114 ± 0.007 kPa.

What about the “vapor or sublimation pressure” value (362.91 K) of the same molecule?
Its value is 0.239 ± 0.015 kPa and 0.231 ± 0.014 kPa.

What does the source list for CN(C)CCN(C)C [N,N,N',N'-tetramethyl-1,2-diaminoethane]?
vapor or sublimation pressure (294.75 K): 1.766 ± 0.11 kPa; vapor or sublimation pressure (304.74 K): 3.055 ± 0.18 kPa; vapor or sublimation pressure (314.76 K): 5.055 ± 0.3 kPa; vapor or sublimation pressure (324.95 K): 8.115 ± 0.49 kPa; vapor or sublimation pressure (334.99 K): 12.53 ± 0.75 kPa; vapor or sublimation pressure (344.96 K): 19.34 ± 1.2 kPa; vapor or sublimation pressure (354.98 K): 28.12 ± 1.7 kPa; vapor or sublimation pressure (364.97 K): 40.04 ± 2.4 kPa

With CN1CCOCC1 [N-methylmorpholine] as the molecule, how does the “vapor or sublimation pressure” value (273.18 K) read?
The value was 6.9 ± 0.41 kPa.

And the “vapor or sublimation pressure” value (283.12 K)?
The value was 12.94 ± 0.78 kPa and 12.93 ± 0.78 kPa.

What about the “vapor or sublimation pressure” value (293.06 K) of the same molecule?
Its value is 23.06 ± 1.4 kPa.

And the “vapor or sublimation pressure” value (303.04 K)?
Its value is 39.34 ± 2.4 kPa.

What about the “vapor or sublimation pressure” value (313.05 K) of the same molecule?
Its value is 64.46 ± 3.9 kPa.

What about the “vapor or sublimation pressure” value (323.08 K) of the same molecule?
Its value is 101.73 ± 6.1 kPa.

What about the “vapor or sublimation pressure” value (333.07 K) of the same molecule?
The value was 155.32 ± 9.3 kPa.

And the “vapor or sublimation pressure” value (343.08 K)?
Its value is 230.31 ± 14 kPa.

What about the “vapor or sublimation pressure” value (353.08 K) of the same molecule?
Its value is 332.76 ± 20 kPa.
